Read-outs that look alike come from different tables or passages of the source.
Key:
[1] = biological target: T1, OCTN1 (Homo sapiens, UniProt Q9H015); assay: Uptake inhibition assay, OCTN1-overexpressing HEK293 cells; assay type: cell-based; settings: in the presence of the alkaloid (100 µM, Figure 3)
T1 construct: expressed in transfected cells; host or cells: HEK293 (lentiviral transduction; cDNA synthesised by GenScript)
Procedure: (§1) The human embryonic kidney 293 (HEK293) cell line was purchased from Invitrogen/ThermoFisher (Waltham, MA, USA). Madin–Darby canine kidney II (MDCKII) wild type cells were obtained from the European Collection of Authenticated Cell Cultures (ECACC catalog no. 00062107). […]
(§2) Plated cells were preincubated with a transport buffer (HBSS) containing 30 or 150 µg/mL of UT extract or 100 µM of isopteropodine, mitraphylline, or uncarine D for 15 min at an appropriate temperature. […] For radiolabeled substrates, accumulation was measured by liquid scintillation counting (MicroBeta Scintillation Counter, PerkinElmer).
(§3) The transporter-mediated uptake and ATP-dependent transport were determined by subtracting the activity of the control cell/transporter abundant-membrane in the presence of AMP from the activity of the transporter-overexpressing cell/transporter-abundant membrane in the presence of ATP. The relative transporter-specific accumulation was expressed as the percent of DMSO activity. […] Confidence intervals (CIs) of 95% were also determined. […]

[2] = system: MRPs; settings: cited from earlier work
[3] = biological target: T2, OATP1B3 (Homo sapiens, UniProt Q9NPD5); assay: Uptake inhibition assay, OATP1B3-overexpressing HEK293 cells; assay type: cell-based; settings: oxindole alkaloids, substrate CCK-8, read-out: IC50 (95% CI of IC50)
T2 construct: expressed in transfected cells; host or cells: HEK293 (lentiviral transduction; cDNA synthesised by GenScript)
Procedure: as §1, §2, §3

[4] = biological target: T3, OATP2B1 (Homo sapiens, UniProt O94956); assay: Uptake inhibition assay, OATP2B1-overexpressing HEK293 cells; assay type: cell-based; settings: oxindole alkaloids, substrate E3S, read-out: IC50 (95% CI of IC50)
T3 construct: expressed in transfected cells; host or cells: HEK293 (lentiviral transduction; cDNA synthesised by GenScript)
Procedure: as §1, §2, §3

[5] = biological target: T4, OATP1A2 (Homo sapiens, UniProt P46721); assay: Uptake inhibition assay, OATP1A2-overexpressing HEK293 cells; assay type: cell-based; settings: oxindole alkaloids; substrate E3S; read-out: IC50 (95% CI of IC50)
T4 construct: expressed in transfected cells; host or cells: HEK293 (lentiviral transduction; cDNA synthesised by GenScript)
Procedure: as §1, §2, §3

[6] = biological target: T5, OAT3 (Homo sapiens, UniProt Q8TCC7); assay: Uptake inhibition assay, OAT3-overexpressing HEK293 cells; assay type: cell-based; settings: oxindole alkaloids, substrate E3S, read-out: IC50 (95% CI of IC50)
T5 construct: expressed in transfected cells; host or cells: HEK293 (lentiviral transduction; cDNA synthesised by GenScript)
Procedure: as §1, §2, §3

[7] = biological target: T6, ENT4 (Homo sapiens, UniProt Q7RTT9); assay: Uptake inhibition assay, ENT4-overexpressing HEK293 cells; assay type: cell-based; settings: 100 µM alkaloid
T6 construct: expressed in transfected cells; host or cells: HEK293 (lentiviral transduction; cDNA synthesised by GenScript)
Procedure: as §1, §2, §3

[8] = biological target: T7, SGLT2 (Homo sapiens, UniProt P31639); assay: Uptake inhibition assay, SGLT2-overexpressing HEK293 cells; assay type: cell-based
T7 construct: expressed in transfected cells; host or cells: HEK293 (lentiviral transduction; cDNA synthesised by GenScript)
Procedure: as §1, §2, §3

T3 sequence (O94956 whole entry): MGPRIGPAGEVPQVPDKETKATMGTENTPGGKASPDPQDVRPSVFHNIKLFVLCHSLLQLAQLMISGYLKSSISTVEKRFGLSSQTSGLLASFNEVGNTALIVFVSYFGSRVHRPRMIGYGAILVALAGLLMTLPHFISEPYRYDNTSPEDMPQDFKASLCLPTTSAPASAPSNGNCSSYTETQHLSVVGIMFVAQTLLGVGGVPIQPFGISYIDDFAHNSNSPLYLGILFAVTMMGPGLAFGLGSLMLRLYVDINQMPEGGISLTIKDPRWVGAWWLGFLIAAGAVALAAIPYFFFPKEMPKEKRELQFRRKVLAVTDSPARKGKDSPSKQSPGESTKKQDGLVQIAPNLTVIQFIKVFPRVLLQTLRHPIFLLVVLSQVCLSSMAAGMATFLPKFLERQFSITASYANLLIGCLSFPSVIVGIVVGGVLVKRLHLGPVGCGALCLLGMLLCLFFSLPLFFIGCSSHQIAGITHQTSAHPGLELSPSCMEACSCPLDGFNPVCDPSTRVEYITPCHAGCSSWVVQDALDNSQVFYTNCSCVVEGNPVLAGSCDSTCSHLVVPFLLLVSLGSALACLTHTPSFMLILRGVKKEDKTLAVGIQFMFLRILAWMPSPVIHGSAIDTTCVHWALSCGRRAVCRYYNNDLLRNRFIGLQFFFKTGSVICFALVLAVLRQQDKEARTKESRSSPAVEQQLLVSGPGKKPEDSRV
T2 sequence (Q9NPD5 whole entry): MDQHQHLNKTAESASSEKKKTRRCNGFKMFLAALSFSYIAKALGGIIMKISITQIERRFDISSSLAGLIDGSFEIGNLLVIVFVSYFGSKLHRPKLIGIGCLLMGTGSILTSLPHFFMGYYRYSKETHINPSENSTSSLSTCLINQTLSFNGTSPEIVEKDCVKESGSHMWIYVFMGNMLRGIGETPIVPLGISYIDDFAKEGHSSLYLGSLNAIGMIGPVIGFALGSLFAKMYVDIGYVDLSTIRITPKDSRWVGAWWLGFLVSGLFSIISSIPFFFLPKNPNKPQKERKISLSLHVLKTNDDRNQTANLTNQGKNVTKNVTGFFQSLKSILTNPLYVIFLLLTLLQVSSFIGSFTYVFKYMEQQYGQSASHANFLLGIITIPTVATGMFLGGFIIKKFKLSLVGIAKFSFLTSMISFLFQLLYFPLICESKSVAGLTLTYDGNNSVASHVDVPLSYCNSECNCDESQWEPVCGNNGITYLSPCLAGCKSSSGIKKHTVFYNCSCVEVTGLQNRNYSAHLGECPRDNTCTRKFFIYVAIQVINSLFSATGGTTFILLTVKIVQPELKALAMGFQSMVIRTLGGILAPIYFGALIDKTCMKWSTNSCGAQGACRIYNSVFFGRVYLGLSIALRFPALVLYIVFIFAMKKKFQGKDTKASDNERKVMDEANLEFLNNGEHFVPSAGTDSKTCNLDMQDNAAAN
T7 sequence (P31639 whole entry): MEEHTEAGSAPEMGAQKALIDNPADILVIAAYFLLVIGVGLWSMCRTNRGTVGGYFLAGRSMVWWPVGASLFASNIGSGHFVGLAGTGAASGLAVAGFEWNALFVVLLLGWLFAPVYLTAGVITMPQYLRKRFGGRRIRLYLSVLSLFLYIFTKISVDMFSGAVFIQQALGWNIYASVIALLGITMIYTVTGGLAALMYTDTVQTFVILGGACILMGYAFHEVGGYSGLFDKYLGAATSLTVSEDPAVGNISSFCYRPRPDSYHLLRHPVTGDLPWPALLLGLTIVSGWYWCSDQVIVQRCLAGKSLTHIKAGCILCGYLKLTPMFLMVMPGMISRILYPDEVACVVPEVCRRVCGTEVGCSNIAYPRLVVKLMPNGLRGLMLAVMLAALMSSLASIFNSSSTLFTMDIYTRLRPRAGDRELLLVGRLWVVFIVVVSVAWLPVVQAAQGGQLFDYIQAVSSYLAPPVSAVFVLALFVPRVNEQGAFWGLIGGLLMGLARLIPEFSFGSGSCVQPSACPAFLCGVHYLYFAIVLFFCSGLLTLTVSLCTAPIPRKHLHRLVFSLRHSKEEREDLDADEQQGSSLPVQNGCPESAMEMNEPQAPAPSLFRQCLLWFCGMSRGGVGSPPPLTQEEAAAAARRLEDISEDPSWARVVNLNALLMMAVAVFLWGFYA
T5 sequence (Q8TCC7 whole entry): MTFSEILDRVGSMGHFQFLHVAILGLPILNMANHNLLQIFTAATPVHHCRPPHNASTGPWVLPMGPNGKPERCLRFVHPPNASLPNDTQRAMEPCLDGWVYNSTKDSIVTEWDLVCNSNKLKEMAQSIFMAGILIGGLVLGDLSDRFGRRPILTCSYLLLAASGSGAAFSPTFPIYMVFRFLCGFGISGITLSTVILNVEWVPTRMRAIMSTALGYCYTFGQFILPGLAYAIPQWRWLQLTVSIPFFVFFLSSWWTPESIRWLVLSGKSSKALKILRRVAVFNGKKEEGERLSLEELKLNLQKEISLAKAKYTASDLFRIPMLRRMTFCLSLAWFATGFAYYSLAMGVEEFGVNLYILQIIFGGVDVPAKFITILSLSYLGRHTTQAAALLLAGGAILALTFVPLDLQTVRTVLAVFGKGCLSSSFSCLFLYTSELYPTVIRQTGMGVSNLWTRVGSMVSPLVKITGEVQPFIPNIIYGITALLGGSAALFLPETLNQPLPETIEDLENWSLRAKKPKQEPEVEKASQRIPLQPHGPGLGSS
T6 sequence (Q7RTT9 whole entry): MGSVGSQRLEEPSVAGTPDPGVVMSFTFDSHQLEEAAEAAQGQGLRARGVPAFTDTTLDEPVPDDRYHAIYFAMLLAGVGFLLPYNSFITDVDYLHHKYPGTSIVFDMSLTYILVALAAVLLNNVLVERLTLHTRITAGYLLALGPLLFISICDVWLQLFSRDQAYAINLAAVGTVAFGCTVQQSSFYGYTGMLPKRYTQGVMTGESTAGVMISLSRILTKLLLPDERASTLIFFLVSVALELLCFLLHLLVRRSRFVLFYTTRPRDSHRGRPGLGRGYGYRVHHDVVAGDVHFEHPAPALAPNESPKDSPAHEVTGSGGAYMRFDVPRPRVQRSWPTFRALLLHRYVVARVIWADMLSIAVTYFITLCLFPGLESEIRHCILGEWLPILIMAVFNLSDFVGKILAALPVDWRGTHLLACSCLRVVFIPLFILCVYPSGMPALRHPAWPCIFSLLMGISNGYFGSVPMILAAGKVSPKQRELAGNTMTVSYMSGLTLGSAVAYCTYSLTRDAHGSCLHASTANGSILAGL
T1 sequence (Q9H015 whole entry): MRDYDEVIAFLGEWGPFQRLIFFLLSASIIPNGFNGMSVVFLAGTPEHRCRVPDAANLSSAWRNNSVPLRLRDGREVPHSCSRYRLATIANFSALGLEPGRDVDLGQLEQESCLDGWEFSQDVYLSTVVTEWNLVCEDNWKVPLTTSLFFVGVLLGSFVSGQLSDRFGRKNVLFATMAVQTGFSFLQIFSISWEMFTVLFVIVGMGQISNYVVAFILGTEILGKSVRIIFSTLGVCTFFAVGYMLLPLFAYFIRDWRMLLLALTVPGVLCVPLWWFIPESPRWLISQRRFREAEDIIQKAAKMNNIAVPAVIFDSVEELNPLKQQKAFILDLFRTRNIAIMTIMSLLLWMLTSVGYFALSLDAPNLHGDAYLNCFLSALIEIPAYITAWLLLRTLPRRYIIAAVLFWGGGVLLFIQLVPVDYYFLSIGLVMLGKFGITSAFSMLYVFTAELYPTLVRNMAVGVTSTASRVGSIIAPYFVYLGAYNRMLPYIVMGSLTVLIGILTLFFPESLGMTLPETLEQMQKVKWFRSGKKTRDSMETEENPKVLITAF
T4 sequence (P46721 whole entry): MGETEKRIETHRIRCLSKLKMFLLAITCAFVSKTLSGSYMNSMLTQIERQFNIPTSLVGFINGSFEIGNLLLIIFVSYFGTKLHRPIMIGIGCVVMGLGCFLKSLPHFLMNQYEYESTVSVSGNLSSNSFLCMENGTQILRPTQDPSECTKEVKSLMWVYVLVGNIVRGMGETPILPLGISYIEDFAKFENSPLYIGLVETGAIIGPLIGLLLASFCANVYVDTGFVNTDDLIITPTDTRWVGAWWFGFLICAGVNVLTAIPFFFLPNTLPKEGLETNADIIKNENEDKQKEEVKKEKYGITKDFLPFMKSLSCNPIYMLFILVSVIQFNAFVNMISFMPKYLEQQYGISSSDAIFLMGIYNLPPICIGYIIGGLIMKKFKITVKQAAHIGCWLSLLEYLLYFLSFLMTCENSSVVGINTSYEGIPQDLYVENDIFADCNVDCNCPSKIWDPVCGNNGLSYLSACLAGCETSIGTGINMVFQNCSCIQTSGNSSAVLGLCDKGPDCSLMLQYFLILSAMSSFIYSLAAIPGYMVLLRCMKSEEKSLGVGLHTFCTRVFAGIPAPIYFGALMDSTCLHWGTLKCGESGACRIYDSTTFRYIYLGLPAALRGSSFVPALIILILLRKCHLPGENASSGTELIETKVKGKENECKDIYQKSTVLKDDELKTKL

SMILES | transporter-mediated substrate accumulation [1] | interaction with MRPs [2] | IC50 ([3]; listed as Isopteropodine) | IC50 [3] | IC50 ([4]; listed as Isopteropodine) | IC50 [4] | IC50 [5] | IC50 ([6]; listed as Isopteropodine) | IC50 [6] | inhibitory effect on transporter-specific transport [7] | decrease of transporter-mediated transport ([8]; at 100 µM) | IC50 ([8]; oxindole alkaloids, substrate AMG, read-out: IC50 (95% CI of IC50))
COC(=O)C1=CO[C@@H](C)[C@H]2CN3CC[C@]4(C(=O)Nc5ccccc54)[C@@H]3C[C@H]12 [mitraphylline] | below 50% | not to interact with MRPs | – | – | – | – | – | – | – | – | – | –
COC(=O)C1=CO[C@@H](C)[C@@H]2CN3CC[C@@]4(C(=O)Nc5ccccc54)[C@@H]3C[C@H]12 [isopteropodine] | – | – | 24.6 µM | 24.6 µM | 45.4 µM | 45.4 µM | 36.1 µM | 46.5 µM | 46.5 µM | significantly inhibited | around 50% | 72.7 µM
